These results are taken from US9598387B2 (Southern Research Institute, priority 2012, dated 2017).

Each structure is given as a SMILES string.

For test [1], the target named is human D2L receptors (Homo sapiens (Human), UniProt P14416). The test is described as follows: [35S]GTPγS Binding Assay, CHO D2 membranes. The settings on record: antagonist vs dopamine; Ke = functional Ki; read-out: CHO-hD2 Ke. Format: biochemical. As for the experimental part:
Chinese hamster ovary (CHO) cells expressing human D2L and D3 receptors served as the source for membrane fractions which were washed and resuspended with assay buffer containing Mg^2+, Na^+, EGTA, and bovine serum albumin. The GTPγS binding assays were performed in a final volume of 0.5 mL for CHO D2 and 1 mL for CHO D3 containing test drug or dopamine (1 mM for D2 cells, and 100 μM for D3 cells) as indicator of binding plateau, [^35S]GTPγS (0.11 nM for CHO D2 and 0.07 nM for CHO D3, 1,250 Ci/mmole, Perkin Elmer, Boston, Mass. 02118); and cell membrane suspension (in assay buffer and GDP for final concentration of 3 μM for CHO D2 and 6 μM for CHO D3). […] The plateau binding (maximal binding stimulation) with test compound was expressed as percent of maximal binding observed with the full agonist dopamine (% Emax). Antagonist activity was assessed by testing a fixed concentration of the test compound and varying concentration of the agonist, dopamine (0.001-100 μM for CHO D2 and 0.1 nM-10 uM for CHO D3). Ke is the functional Ki (equilibrium dissociation constant) of an antagonist and is calculated according to the equation: [Test Compound]/(EC50-2/EC50-1−1), where EC50-2 is the EC50 value in the presence of the test compound and EC50-1 is the value in the absence of the test compound.
Background: GTPγS is a poorly hydrolysed GTP analogue; its binding reports G protein activation.

In test [2] the target is T1, D3R (Homo sapiens (Human), UniProt P35462). The test is described as follows: β-Arrestin Recruitment Assay, U2OS DRD3. Format: cell-based. The settings on record: antagonist vs EC80 8 nM PD128907, U2OS DRD3 cells; read-out: D3 IC50. On the procedure: Antagonist potency of the compounds against agonist induced recruitment of β-arrestin by D3R and D2LR was measured using DiscoverRx PathHunter eXpress kits. […] After incubation at 37° C. for 90 min, the DiscoveRx detection reagent was added, the plates were incubated at room temperature for 60 min and the luminescence was measured on a Synergy 4 plate reader (BioTek). The data were plotted and the agonist EC80 values were calculated using GraphPad Prism software. For antagonist activity, the cells were plated as described above and treated with multiple concentrations (starting from 500 nM, half log dilution, 10 dose points) of the test compounds in Plating Reagent with 0.1% DMSO.
For orientation: Arrestin recruitment assays detect the binding of arrestin to an activated receptor.

The target in test [3] is T1, D3R. The test is described as follows: D3 Mitogenesis Functional Assay (3H-thymidine uptake, CHOp-D3 cells). The class given is cell-based. The essentials: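 CHO cells expressing human D3, serum-starved 24 h, then given compound (agonist mode) or antagonist plus 30 nM quinpirole final for 16 h at 37 °C. A 2 h [3H]thymidine pulse was used for uptake.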
Test [4] relates to Rats. The test is described as follows: Cue-induced reinstatement of cocaine-seeking. Format: in vivo, rat. The settings on record: 3 doses ip 20 minutes before reinstatement session. As for the experimental part: Rats were trained to self-administer cocaine (1.0 mg/kg/injection) under a FR1 schedule of reinforcement in daily 3-h sessions and, after stable responding was established (as described above) the schedule was changed to FR3. After stable responding under the FR3 schedule was established, extinction training began. Stable responding was defined as follows: 12 consecutive sessions in which total rewards per session was greater than 20 and in which total rewards per session for the last three sessions was within ±10% of the mean of the three sessions. […] After extinction criteria were met each rat was tested in one 1-h reinstatement session; each rat received an ip injection of vehicle or one of 3 doses of the test compound and 20 minutes later was placed in the operant chamber. At the start of the reinstatement session the cocaine-associated cues (light on for 20 s and pump on for 4.5 s) were presented twice, once at 25 sec and again at 2 min into the session. Presses on the active lever illuminated the light and activated the pump.

Test [5] deals with T1, D3R. The test is described as follows: [35S]GTPγS Binding Assay, CHO D3 membranes. Format: biochemical. The settings on record: antagonist vs dopamine; Ke = functional Ki; read-out: CHO-hD3 Ke.
Protocol: Chinese hamster ovary (CHO) cells expressing human D2L and D3 receptors served as the source for membrane fractions which were washed and resuspended with assay buffer containing Mg^2+, Na^+, EGTA, and bovine serum albumin. […] After preincubation with test compounds, cell membranes and GDP for 15 minutes at 30° C. in a shaking water bath, [^35S]GTPγS was added and incubation proceeded for an additional 45 minutes. Cell membranes were harvested on Brandel GF/B filtermats with a 24-pin Brandel harvester (Biomedical Research & Development Laboratories, Inc., Gaithersburg, Md.). […] Antagonist activity was assessed by testing a fixed concentration of the test compound and varying concentration of the agonist, dopamine (0.001-100 μM for CHO D2 and 0.1 nM-10 uM for CHO D3).

T1 sequence (P35462 whole entry): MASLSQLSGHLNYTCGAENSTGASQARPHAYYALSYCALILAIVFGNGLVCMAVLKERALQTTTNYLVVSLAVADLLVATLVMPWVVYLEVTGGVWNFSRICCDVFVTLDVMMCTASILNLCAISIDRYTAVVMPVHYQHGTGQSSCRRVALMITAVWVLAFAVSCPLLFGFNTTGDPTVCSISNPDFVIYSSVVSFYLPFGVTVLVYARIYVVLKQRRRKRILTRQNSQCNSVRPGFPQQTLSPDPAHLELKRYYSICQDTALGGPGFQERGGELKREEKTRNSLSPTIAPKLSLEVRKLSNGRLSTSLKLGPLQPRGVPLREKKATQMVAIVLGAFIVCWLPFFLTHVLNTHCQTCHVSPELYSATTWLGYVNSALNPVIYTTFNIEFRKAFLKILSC
human D2L receptors, sequence (P14416 whole entry): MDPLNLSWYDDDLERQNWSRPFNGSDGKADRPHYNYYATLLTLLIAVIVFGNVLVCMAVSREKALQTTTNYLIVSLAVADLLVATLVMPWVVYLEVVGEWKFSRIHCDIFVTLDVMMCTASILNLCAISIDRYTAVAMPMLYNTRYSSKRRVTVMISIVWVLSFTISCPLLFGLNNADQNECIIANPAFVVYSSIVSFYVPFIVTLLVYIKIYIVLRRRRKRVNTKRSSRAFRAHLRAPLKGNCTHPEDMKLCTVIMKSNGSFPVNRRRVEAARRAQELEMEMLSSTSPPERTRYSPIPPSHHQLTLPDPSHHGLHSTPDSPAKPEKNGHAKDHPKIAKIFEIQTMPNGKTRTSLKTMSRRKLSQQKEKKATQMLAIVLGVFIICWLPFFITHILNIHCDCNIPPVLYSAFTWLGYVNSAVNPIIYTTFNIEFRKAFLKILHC

What is called IC50 is the concentration needed to halve the response being measured. One may read the Emax as the maximal effect, on the per cent scale that the assay sets. For the molecule `CC(C)(C)c1nc(N2CCN(CCCCNC(=O)c3cn4ccccc4n3)CC2)cc(C(F)(F)F)n1` [Compound 113, N-(4-(4-(2-(tert-Butyl)-6-(trifluoromethyl)pyrimidin-4-yl)piperazin-1-yl)butyl)imidazo[1,2-a]pyridine-2-carboxamide], the Ki in test [1] turned out to be 111 ± 25 nM; in test [5], 1.32 ± 0.35 nM. For the same molecule, the IC50 in test [2] came to 0.56 ± 0.12 nM; in test [3] (inhibition of quinpirole (30 nM final) stimulation of mitogenesis, read-out: D3 Antagonist IC50) it was 157 ± 34 nM. Besides, in test [3] (at 10 μM, % maximum stimulation vs quinpirole (100%), read-out: D3 Agonist Emax), the Emax at 10 µM turned out to be 0%. For the same molecule, the “cue-induced reinstatement (active lever presses, 1-h test)” value in test [4] is reported as “strongly reduced in a dose-related fashion”.
